{"source": "patent US20230069804A1", "about": "“METHODS AND COMPOSITIONS FOR MODULATING SPLICING” (SkyHawk Therapeutics, Inc., priority 2019, published 2023)", "key": {"[1]": {"test_system": "MDR1-MDCK cell monolayers", "test": "MDCK-MDR1 permeability assay (BBB penetration potential)", "type": "in vitro ADME", "conditions": "5 μM, 120 minutes; for MDCK MDRP1 Efflux Ratio: Papp (B-to-A)/Papp (A-to-B), separated enantiomers, told apart by chiral retention time", "description": "(§1) Each determination is performed in duplicate. […] Analytical conditions are outlined below.\n(§2) Papp=(dCr/dt)×Vr/(A×CA) (1)"}, "MDR1": {"test_system": "MDR1", "test": "MDCK-MDR1 permeability assay (BBB penetration potential)", "type": "in vitro ADME", "conditions": "dog", "description": "as §1, §2"}, "[2]": {"conditions": "MDCK-MDR1, pH 7.4, Papp (B-to-A)/Papp (A-to-B), 5 μM, 120 minutes, separated enantiomers, told apart by chiral retention time, read-out: MDCK MDRP1 Efflux Ratio"}, "[3]": {"conditions": "MDCK-MDR1, 5 μM, 120 minutes, pH 7.4"}}, "note": "Values joined by “and” are separate entries in the source; they are usually repeats but may differ in a detail not shown here. Equal entries are not always repeated. Where two headings read alike, the source gives them in different places.", "data": [{"smiles": "CN(c1nnc(-c2cc(F)c(-c3cn[nH]c3)cc2O)s1)[C@H]1C[C@@H]2CC[C@H]([C@H]1F)N2C", "note": "(racemic) [24A/24B, 4-fluoro-2-(5-{[(1S,2S,3R,5R)-2-fluoro-8-methyl-8-azabicyclo[3.2.1]octan-3-yl](methyl)amino}-1,3,4-thiadiazol-2-yl)-5-(1H-pyrazol-4-yl)phenol and 4-fluoro-2-(5-{[(1R,2R,3S,5S)-2-fluoro-8-methyl-8-azabicyclo[3.2.1]octan-3-yl](methyl)amino}-1,3,4-thiadiazol-2-yl)-5-(1H-pyrazol-4-yl)phenol]", "values": [{"measurement": "MDCK MDRP1 Efflux Ratio", "setting": "[1]", "value": 7}, {"measurement": "efflux ratio at 120 min, 5 μM", "setting": "MDR1; [2]", "value": 6}]}, {"smiles": "COc1cc(-c2ccc(-c3nnc(N(C)[C@@H]4C[C@H]5CC[C@H](N5)[C@@H]4F)s3)c(O)c2)ncn1", "note": "(racemic) [5A/5B, 2-(5-{[(1S,2S,3R)-2-fluoro-8-azabicyclo[3.2.1]octan-3-yl](methyl)amino}-1,3,4-thiadiazol-2-yl)-5-(6-methoxypyrimidin-4-yl)phenol and 2-(5-{[(2R,3S,5S)-2-fluoro-8-azabicyclo[3.2.1]octan-3-yl](methyl)amino}-1,3,4-thiadiazol-2-yl)-5-(6-methoxypyrimidin-4-yl)phenol]", "values": [{"measurement": "efflux ratio at 120 min, 5 μM", "setting": "MDR1; [2]", "value": 2}]}, {"smiles": "CN(c1nnc(-c2cc(F)c(-c3cn[nH]c3)cc2O)s1)[C@@H]1C[C@H]2CC[C@H](N2)[C@@H]1F", "note": "(single isomer, unassigned) [Compound E-6A]", "values": [{"measurement": "MDCK-MDR1: % Recov A-B", "setting": "[1]; pH 7.4", "value": 59, "unit": "%"}, {"measurement": "MDCK-MDR1: % Recov B-A", "setting": "[1]; pH 7.4", "value": 80, "unit": "%"}, {"measurement": "efflux ratio at 120 min, 5 μM", "setting": "MDR1; MDCK-MDR1, pH 7.4, Papp (B-to-A)/Papp (A-to-B), read-out: MDCK-MDR1: Efflux", "value": 15}, {"measurement": "Papp A→B at 120 min, 5 μM", "setting": "MDR1; [3]", "value": 2.33, "unit": "×10⁻⁶ cm/s"}, {"measurement": "Papp B→A at 120 min, 5 μM", "setting": "MDR1; [3]", "value": 35.2, "unit": "×10⁻⁶ cm/s"}]}, {"smiles": "CN(c1nnc(-c2ccc(-c3cn[nH]c3)cc2O)s1)[C@H]1C[C@@H]2CC[C@@H](N2)[C@H]1F", "note": "(racemic) [7A/7B, 2-(5-{[(1S,2S,3R,5R)-2-fluoro-8-azabicyclo[3.2.1]octan-3-yl](methyl)amino}-1,3,4-thiadiazol-2-yl)-5-(1H-pyrazol-4-yl)phenol and 2-(5-{[(1R,2R,3S,5S)-2-fluoro-8-azabicyclo[3.2.1]octan-3-yl](methyl)amino}-1,3,4-thiadiazol-2-yl)-5-(1H-pyrazol-4-yl)phenol]", "values": [{"measurement": "efflux ratio at 120 min, 5 μM", "setting": "MDR1; [2]", "value": 12}]}, {"smiles": "COc1cc(-c2ccc(-c3nnc(N(C)[C@@H]4C[C@H]5CC[C@H](N5)[C@@H]4F)s3)c(O)c2)ccn1", "note": "(racemic) [11A/11B, 2-(5-{[(1S,2S,3R)-2-fluoro-8-azabicyclo[3.2.1]octan-3-yl](methyl)amino}-1,3,4-thiadiazol-2-yl)-5-(2-methoxypyridin-4-yl)phenol and 2-(5-{[(2R,3S,5S)-2-fluoro-8-azabicyclo[3.2.1]octan-3-yl](methyl)amino}-1,3,4-thiadiazol-2-yl)-5-(2-methoxypyridin-4-yl)phenol]", "values": [{"measurement": "efflux ratio at 120 min, 5 μM", "setting": "MDR1; [2]", "value": 2}]}, {"smiles": "CN(c1nnc(-c2ccc(-c3cnn(C)c3)cc2O)s1)[C@H]1C[C@@H]2CC[C@H]([C@H]1F)N2C", "note": "(racemic) [25A/25B, 2-(5-{[(1S,2S,3R,5R)-2-fluoro-8-methyl-8-azabicyclo[3.2.1]octan-3-yl](methyl)amino}-1,3,4-thiadiazol-2-yl)-5-(1-methyl-1H-pyrazol-4-yl)phenol and 2-(5-{[(1R,2R,3S,5S)-2-fluoro-8-methyl-8-azabicyclo[3.2.1]octan-3-yl](methyl)amino}-1,3,4-thiadiazol-2-yl)-5-(1-methyl-1H-pyrazol-4-yl)phenol]", "values": [{"measurement": "MDCK MDRP1 Efflux Ratio", "setting": "[1]", "value": "3 and 4"}]}, {"smiles": "COc1cc(-c2ccc(-c3nnc(N(C4CC4)[C@@H]4C[C@H]5CC[C@H](N5)[C@@H]4F)s3)c(O)c2)cc(F)n1", "note": "(racemic) [2A/2B, 2-(5-(cyclopropyl((1S,2S,3R,5R)-2-fluoro-8-azabicyclo[3.2.1]octan-3-yl)amino)-1,3,4-thiadiazol-2-yl)-5-(2-fluoro-6-methoxypyridin-4-yl)phenol and 2-(5-(cyclopropyl((1R,2R,3S,5S)-2-fluoro-8-azabicyclo[3.2.1]octan-3-yl)amino)-1,3,4-thiadiazol-2-yl)-5-(2-fluoro-6-methoxypyridin-4-yl)phenol]", "values": [{"measurement": "efflux ratio at 120 min, 5 μM", "setting": "MDR1; [2]", "value": 5}]}]}
